Experimental data as given in US8604049B2, “4-dimethylamino-phenyl-substituted naphthyridines, and use thereof as medicaments” (Boehringer Ingelheim International GmbH, priority 2008, dated 2013).
Like-named read-outs stand apart in the source and are kept apart here.

Target: T1, Recombinant human Syk (GST-Syk kinase fusion protein) (Homo sapiens, UniProt P43405)
T1 construct: made in house
Assay: Syk Kinase Test (Kinase Glo luminescence)
Format: biochemical
Conditions: read-out: SYK inh % at 1 μM
Procedure: The catalytic activity of the GST-Syk kinase fusion protein was determined using the Kinase Glo® Luminescence Kinase test of Messrs Promega. In this homogeneous test the amount of ATP remaining after the kinase reaction has been carried out is quantified by a luciferin-luciferase reaction using luminescence. The luminescence signal obtained correlates with the amount of ATP still present and thus correlates inversely with the activity of the protein kinase.
GST-Syk was diluted to 6.0 nM in the test buffer and 10 μl of this dilution were used in the kinase test (final concentration of Syk=4 nM in a total volume of 15 μl).
Positive controls are the reaction mixtures that contain no test substance; negative controls are reaction mixtures that contain no kinase.
After 60 minutes, 10 μl Kinase-Glo® solution (Promega, Cat. #V6712) (heated to ambient temperature) are added to each well and incubation is continued for a further 15 minutes at ambient temperature.
Data Evaluation and Calculation:
The output file of the “MicroBeta TRILUX” is a text file that contains the well number and measurements obtained. […] Then from this the % inherent value for the measurement of each substance concentration was calculated using an “MS-Excel—VB macro”. […] The IC50 values were calculated from the % inhibition values using “GraphPadPrism” software (Version 5) (GraphPad Software Inc.).

[1] = 1 μM test substance, 4 nM GST-Syk

SMILES	inhibition at 1 µM [1] [%]	inhibition at 1 µM [%]
Cc1cc(-c2cc3ncccc3c(O[C@H]3CC[C@H](O)CC3)n2)ccc1N(C)C [Example 2]	71.9	
Cc1cc(-c2cc3ncccc3c(-n3cc(CCO)cn3)n2)ccc1N(C)C [Example 12, 5-(4-hydroxyethyl-pyrazolyl)-7-(4-dimetyhlamino-3-methylphenyl)-[1,6]naphthyridine]		105
COc1nc(-c2ccc(N(C)C)c(C)c2)cc2ncccc12 [Example 17, 5-methoxy-7-(4-dimethylamino-3-methylphenyl)-[1,6]naphthyridine]		73.2
Cc1cc(-c2cc3ncccc3c(NC3CC3)n2)ccc1N(C)C [Example 20, 5-(cyclopropylamino)-7-(4-dimethylamino-3-methylphenyl)-[1,6]naphthyridine]		90.2
Cc1cc(-c2cc3ncccc3c(NCCc3cn[nH]c3)n2)ccc1N(C)C [Example 6]	85.2	
Cc1cc(-c2cc3ncccc3c(N3CC[C@@H](CN)C3)n2)ccc1N(C)C [Example 3, 5-(aminomethylpyrrolidin-1-yl)-7-(4-dimethylamino-3-methylphenyl)-[1,6]naphthyridine]		88.2
Cc1cc(-c2cc3ncccc3c(O[C@H]3CC[C@@H](O)CC3)n2)ccc1N(C)C [Example 1]	85.2	
